Measurements as given in US9822124B2, “Bicyclic heteroaromatic carboxamide compounds useful as Pim kinase inhibitors” (Incyte Corporation, priority 2014, dated 2017).

What was measured:
Assay type in all cases: biochemical
[1] = target: Pim-1 (Homo sapiens (Human), UniProt P11309); assay: Pim-1 kinase assay (AlphaScreen, Biotin-labeled BAD peptide substrate); details: 1 mM ATP; read-out: Pim1 IC50
Experimental: (§1) Pim-1 and Pim-3 kinase assays—20 μL reactions were run in white 384 well polystyrene plates dotted with 0.8 μL compound/DMSO in the assay buffer (50 mM Tris, pH 7.5, 0.01% Tween-20, 5 mM MgCl2, 0.01% BSA, 5 mM DTT), containing 0.05 μM Biotin-labeled BAD peptide substrate (AnaSpec 62269), 1 mM ATP, and […] (Pim-1, Invitrogen PV3503) or […] (Pim-3, Millipore 14-738) enzyme for 1 h at 25° C. Reactions were stopped by addition of 10 μL STOP Buffer (150 mM Tris, pH=7.5, 150 mM NaCl, 75 mM EDTA, 0.01% Tween-20, 0.3% BSA) supplemented with Phospho-Bad (Ser112) Antibody (Cell Signaling 9291) diluted 666-fold, and Streptavidin donor beads (PerkinElmer 6760002) along with Protein-A acceptor beads (PerkinElmer 6760137) at 15 μg/mL each. Supplementation of the STOP buffer with beads and stopping the reactions were done under reduced light. Prior to the stopping reactions STOP buffer with beads was preincubated for 1 h in the dark at room temperature. After stopping the reactions, plates were incubated for 1 h in the dark at room temperature before reading on a PHERAstar FS plate reader (BMG Labtech) under reduced light.

[2] = target: Pim-2 (Homo sapiens (Human), UniProt Q9P1W9); assay: Pim-2 kinase assay (TR-FRET, Fluorescein-labeled CREBtide peptide substrate); details: 1 mM ATP; read-out: Pim2 IC50
Experimental: Pim-2 kinase assay—20 μL reactions were run in white 384 well polystyrene plates dotted with 0.8 μL compound/DMSO in the assay buffer (50 mM Tris, pH 7.5, 0.01% Tween-20, 5 mM MgCl2, 0.01% BSA, 5 mM DTT), containing 0.05 μM Fluorescein-labeled CREBtide peptide substrate (Invitrogen PV3508), 1 mM ATP, and 1 nM enzyme (Invitrogen PV3649) for 2 h at 25° C. Reactions were stopped by addition of 10 μL TR-FRET Dilution Buffer (Invitrogen PV3574) with 30 mM EDTA and 1.5 nM LanthaScreen Tb-CREB pSer133 antibody (Invitrogen PV3566). After 30 min. incubation at room temperature, plates were read on a PHERAstar FS plate reader (BMG Labtech).

[3] = target: Pim-3 (Homo sapiens (Human), UniProt Q86V86); assay: Pim-3 kinase assay (AlphaScreen, Biotin-labeled BAD peptide substrate); details: 1 mM ATP; read-out: Pim3 IC50
Experimental: as §1

Sequence of Pim-1 (P11309 whole entry): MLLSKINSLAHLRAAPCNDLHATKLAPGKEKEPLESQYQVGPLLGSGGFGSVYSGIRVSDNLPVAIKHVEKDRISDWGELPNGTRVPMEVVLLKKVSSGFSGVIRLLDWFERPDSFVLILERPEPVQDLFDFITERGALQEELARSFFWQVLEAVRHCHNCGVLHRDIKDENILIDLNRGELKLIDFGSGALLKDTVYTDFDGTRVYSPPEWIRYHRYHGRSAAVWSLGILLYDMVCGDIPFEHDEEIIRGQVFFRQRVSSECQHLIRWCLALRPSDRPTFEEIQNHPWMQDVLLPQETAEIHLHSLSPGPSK
Sequence of Pim-2 (Q9P1W9 whole entry): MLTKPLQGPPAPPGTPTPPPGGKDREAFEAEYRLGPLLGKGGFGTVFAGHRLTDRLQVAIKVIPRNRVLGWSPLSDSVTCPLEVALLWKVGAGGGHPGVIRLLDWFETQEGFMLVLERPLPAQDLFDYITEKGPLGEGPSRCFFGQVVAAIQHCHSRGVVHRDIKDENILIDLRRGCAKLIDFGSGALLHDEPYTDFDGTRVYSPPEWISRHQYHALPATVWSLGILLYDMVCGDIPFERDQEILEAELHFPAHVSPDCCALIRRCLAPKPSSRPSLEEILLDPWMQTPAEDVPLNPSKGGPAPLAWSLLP

| Compound | IC50 [1] [µM] | IC50 [2] [µM] | IC50 [3] [µM] |
| --- | --- | --- | --- |
| C[C@@H]1C[C@H](N)CN(c2ccncc2NC(=O)c2ccc3occ(C4CCOC4)c3n2)C1 (mixture of isomers) [Example 31, N-(4-((3S,5R)-3-Amino-5-methylpiperidin-1-yl)pyridin-3-yl)-3-(tetrahydrofuran-3-yl)furo[3,2-b]pyridine-5-carboxamide] | ≤ 0.01 | 0.1 to 1 | ≤ 0.01 |
| C[C@H]1CN(c2ccncc2NC(=O)c2ccc3cc([C@@H]4C[C@@H]4C)oc3n2)C[C@@H](N)[C@@H]1O (racemic) [Example 73, N-{4-[(3R,4R,5S)-3-Amino-4-hydroxy-5-methylpiperidin-1-yl]pyridin-3-yl}-2-(cis-2-methylcyclopropyl)furo[2,3-b]pyridine-6-carboxamide] | ≤ 0.01 | ≤ 0.1 | ≤ 0.01 |
| C[C@@H]1C[C@H]1c1cc2ccc(C(=O)Nc3cnccc3N3C[C@@H](N)[C@H](O)[C@@H](C)C3)nc2o1 (racemic) [Example 74, N-{4-[(3R,4R,5S)-3-Amino-4-hydroxy-5-methylpiperidin-1-yl]pyridin-3-yl}-2-(trans-2-methylcyclopropyl)furo[2,3-b]pyridine-6-carboxamide] | ≤ 0.01 | ≤ 0.1 | ≤ 0.01 |
| C[C@@H]1C[C@H](N)CN(c2ccncc2NC(=O)c2ccc3cc([C@@H]4C[C@@H]4C)oc3n2)C1 (racemic) [Example 75, N-{4-[(3S,5R)-3-Amino-5-methylpiperidin-1-yl]pyridin-3-yl}-2-(cis-2-methylcyclopropyl)furo[2,3-b]pyridine-6-carboxamide] | ≤ 0.01 | ≤ 0.1 | ≤ 0.01 |
| C[C@@H]1C[C@H](N)CN(c2ccncc2NC(=O)c2ccc3cc([C@@H]4C[C@H]4C)oc3n2)C1 (racemic) [Example 76, N-{4-[(3S,5R)-3-Amino-5-methylpiperidin-1-yl]pyridin-3-yl}-2-(trans-2-methylcyclopropyl)furo[2,3-b]pyridine-6-carboxamide] | ≤ 0.01 | ≤ 0.1 | ≤ 0.01 |
| CCCc1cc2nc(C(=O)Nc3cnccc3N3C[C@H](C)C[C@H](N)C3)ccc2o1 [Example 1, N-(4-((3S,5R)-3-Amino-5-methylpiperidin-1-yl)pyridin-3-yl)-2-propylfuro[3,2-b]pyridine-5-carboxamide] | ≤ 0.01 | 0.1 to 1 | ≤ 0.01 |
| CC(C)c1cc2nc(C(=O)Nc3cnccc3N3C[C@H](C)C[C@H](N)C3)ccc2o1 [Example 2, N-{4-[(3S,5R)-3-Amino-5-methylpiperidin-1-yl]pyridin-3-yl}-2-isopropylfuro[3,2-b]pyridine-5-carboxamide] | 0.01 to 0.05 | 0.1 to 1 | ≤ 0.01 |
| COc1ccc(-c2cc3nc(C(=O)Nc4cnccc4N4C[C@H](C)C[C@H](N)C4)ccc3o2)cn1 [Example 3, N-(4-((3S,5R)-3-Amino-5-methylpiperidin-1-yl)pyridin-3-yl)-2-(6-methoxypyridin-3-yl)furo[3,2-b]pyridine-5-carboxamide] | ≤ 0.01 | > 2 | ≤ 0.01 |
| C[C@@H]1C[C@H](N)CN(c2ccncc2NC(=O)c2ccc3oc(-c4c(F)cccc4F)cc3n2)C1 [Example 4, N-(4-((3S,5R)-3-Amino-5-methylpiperidin-1-yl)pyridin-3-yl)-2-(2,6-difluorophenyl)furo[3,2-b]pyridine-5-carboxamide] | ≤ 0.01 | > 2 | 0.01 to 0.05 |
| C[C@@H]1C[C@H](N)CN(c2ccncc2NC(=O)c2ccc3oc(-c4ccc(N5CCOCC5)nc4)cc3n2)C1 [Example 5, N-(4-((3S,5R)-3-Amino-5-methylpiperidin-1-yl)pyridin-3-yl)-2-(6-morpholinopyridin-3-yl)furo[3,2-b]pyridine-5-carboxamide] | ≤ 0.01 | 1 to 10 | ≤ 0.01 |
| CC(C)c1cc2nc(C(=O)Nc3cnccc3N3C[C@@H](N)[C@H](O)[C@@H](C)C3)ccc2o1 [Example 6, N-{4-[(3R,4R,5S)-3-Amino-4-hydroxy-5-methylpiperidin-1-yl]pyridin-3-yl}-2-isopropylfuro[3,2-b]pyridine-5-carboxamide] | 0.01 to 0.05 | 0.1 to 1 | ≤ 0.01 |
| COc1ccc(-c2cc3nc(C(=O)Nc4cnccc4N4C[C@@H](N)[C@H](O)[C@@H](C)C4)ccc3o2)cn1 [Example 7, N-(4-((3R,4R,5S)-3-Amino-4-hydroxy-5-methylpiperidin-1-yl)pyridin-3-yl)-2-(6-methoxypyridin-3-yl)furo[3,2-b]pyridine-5-carboxamide] | ≤ 0.01 | > 2 | ≤ 0.01 |
| C[C@H]1CN(c2ccncc2NC(=O)c2ccc3oc(-c4c(F)cccc4F)cc3n2)C[C@@H](N)[C@@H]1O [Example 8, N-(4-((3R,4R,5S)-3-Amino-4-hydroxy-5-methylpiperidin-1-yl)pyridin-3-yl)-2-(2,6-difluorophenyl)furo[3,2-b]pyridine-5-carboxamide] | ≤ 0.01 | > 2 | 0.01 to 0.05 |
| C[C@H]1CN(c2ccncc2NC(=O)c2ccc3oc(-c4ccc(N5CCOCC5)nc4)cc3n2)C[C@@H](N)[C@@H]1O [Example 9, N-(4-((3R,4R,5S)-3-Amino-4-hydroxy-5-methylpiperidin-1-yl)pyridin-3-yl)-2-(6-morpholinopyridin-3-yl)furo[3,2-b]pyridine-5-carboxamide] | ≤ 0.01 | 1 to 10 | ≤ 0.01 |
| CC(C)c1coc2ccc(C(=O)Nc3cnccc3N3C[C@@H](N)[C@H](O)[C@@H](C)C3)nc12 [Example 10, N-(4-((3R,4R,5S)-3-Amino-4-hydroxy-5-methylpiperidin-1-yl)pyridin-3-yl)-3-isopropylfuro[3,2-b]pyridine-5-carboxamide] | ≤ 0.01 | ≤ 0.1 | ≤ 0.01 |
| C[C@H]1CN(c2ccncc2NC(=O)c2ccc3occ(-c4c(F)cccc4F)c3n2)C[C@@H](N)[C@@H]1O [Example 11, N-(4-((3R,4R,5S)-3-Amino-4-hydroxy-5-methylpiperidin-1-yl)pyridin-3-yl)-3-(2,6-difluorophenyl)furo[3,2-b]pyridine-5-carboxamide] | ≤ 0.01 | ≤ 0.1 | ≤ 0.01 |
| C[C@H]1CN(c2ccncc2NC(=O)c2ccc3occ(-c4ccccc4F)c3n2)C[C@@H](N)[C@@H]1O [Example 12, N-(4-((3R,4R,5S)-3-Amino-4-hydroxy-5-methylpiperidin-1-yl)pyridin-3-yl)-3-(2-fluorophenyl)furo[3,2-b]pyridine-5-carboxamide] | ≤ 0.01 | 0.1 to 1 | ≤ 0.01 |
| COc1ccc(F)c(-c2coc3ccc(C(=O)Nc4cnccc4N4C[C@@H](N)[C@H](O)[C@@H](C)C4)nc23)c1F [Example 13, N-(4-((3R,4R,5S)-3-Amino-4-hydroxy-5-methylpiperidin-1-yl)pyridin-3-yl)-3-(2,6-difluoro-3-methoxyphenyl)furo[3,2-b]pyridine-5-carboxamide] | ≤ 0.01 | 0.1 to 1 | ≤ 0.01 |
| COc1ccc(-c2coc3ccc(C(=O)Nc4cnccc4N4C[C@@H](N)[C@H](O)[C@@H](C)C4)nc23)cn1 [Example 14, N-(4-((3R,4R,5S)-3-Amino-4-hydroxy-5-methylpiperidin-1-yl)pyridin-3-yl)-3-(6-methoxypyridin-3-yl)furo[3,2-b]pyridine-5-carboxamide] | ≤ 0.01 | 1 to 10 | 0.01 to 0.05 |
| CCc1coc2ccc(C(=O)Nc3cnccc3N3C[C@@H](N)[C@H](O)[C@@H](C)C3)nc12 [Example 15, N-(4-((3R,4R,5S)-3-Amino-4-hydroxy-5-methylpiperidin-1-yl)pyridin-3-yl)-3-ethylfuro[3,2-b]pyridine-5-carboxamide] | ≤ 0.01 | ≤ 0.1 | ≤ 0.01 |
| C[C@H]1CN(c2ccncc2NC(=O)c2ccc3occ(C4CCN(C)CC4)c3n2)C[C@@H](N)[C@@H]1O [Example 16, N-(4-((3R,4R,5S)-3-Amino-4-hydroxy-5-methylpiperidin-1-yl)pyridin-3-yl)-3-(1-methylpiperidin-4-yl)furo[3,2-b]pyridine-5-carboxamide] | 0.01 to 0.05 | > 2 | > 0.04 |
| C[C@H]1CN(c2ccncc2NC(=O)c2ccc3occ(C4CCOCC4)c3n2)C[C@@H](N)[C@@H]1O [Example 17, N-(4-((3R,4R,5S)-3-Amino-4-hydroxy-5-methylpiperidin-1-yl)pyridin-3-yl)-3-(tetrahydro-2H-pyran-4-yl)furo[3,2-b]pyridine-5-carboxamide] | ≤ 0.01 | 0.1 to 1 | ≤ 0.01 |
